Source: patent US9428452B2, “Compounds” (Glaxo Group Limited, priority 2012, dated 2016)
Marks after values point to notes of the source that are not given here.

How the values were obtained:
[1] = molecular target: T1, Human RORγ Ligand Binding Domain (RORγ-LBD) (Homo sapiens, UniProt P51449); test: Dual Fluorescence Energy Transfer (FRET) assay: co-activator SRC1(2) peptide interaction with RORγ-LBD; type: biochemical; conditions: RORγ-LBD / SRC1(2) peptide, read-out: mean pIC50 (converted)
T1 construct: His6 with thrombin site) (N); made in house; host or cells: E. coli BL21(DE3), modified pET21a vector
T1 sequence (P51449 263-518): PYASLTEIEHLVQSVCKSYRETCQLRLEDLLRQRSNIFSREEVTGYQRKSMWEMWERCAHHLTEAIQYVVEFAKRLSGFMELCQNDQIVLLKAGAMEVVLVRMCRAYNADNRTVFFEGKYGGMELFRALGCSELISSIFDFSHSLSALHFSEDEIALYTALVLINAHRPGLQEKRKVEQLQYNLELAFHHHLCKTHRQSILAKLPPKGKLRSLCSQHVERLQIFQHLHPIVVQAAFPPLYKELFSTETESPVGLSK
Excerpt: Dual Fluorescence Energy Transfer (FRET) Assay
This assay is based on the knowledge that nuclear receptors interact with cofactors (transcription factors) in a ligand dependent manner. RORγ is a typical nuclear receptor in that it has an AF2 domain in the ligand binding domain (LBD) which interacts with co-activators.
This assay measures ligand-mediated interaction of the co-activator peptide with the purified bacterial-expressed RORγ ligand binding domain (RORγ-LBD) to indirectly assess ligand binding. RORγ has a basal level of interaction with the co-activator SRC1(2) in the absence of ligand, thus, it is possible to find ligands that inhibit or enhance the RORγ/SRC1(2) interaction.
Human RORγ Ligand Binding Domain (RORγ-LBD) was expressed in E. coli strain BL21(DE3) as an amino-terminal polyhistidine tagged fusion protein. DNA encoding this recombinant protein was sub-cloned into a modified pET21a expression vector (Novagen).
Approximately 50 g E. coli cell pellet was resuspended in 300 mL of lysis buffer (30 mM imidazole pH 7.0 and 150 mM NaCl). Cells were lysed by sonication and cell debris was removed by centrifugation for 30 minutes at 20,000 g at 4° C. […] The clarified lysate was loaded onto a column (XK-26) packed with ProBond Nickel Chelating resin (InVitrogen), pre-equilibrated with 30 mM imidazole pH 7.0 and 150 mM NaCl. After washing to baseline absorbance with the equilibration buffer, the column was developed with a gradient from 30 to 500 mM imidazole pH 7.0. Column fractions containing the RORγ-LBD protein were pooled and concentrated to a volume of 5 mLs. The concentrated protein was loaded onto a Superdex 200 column pre-equilibrated with 20 mM Tris-Cl pH 7.2 and 200 mM NaCl. The fractions containing the desired RORγ-LBD protein were pooled together.
Purified RORγ-LBD was buffer exchanged by exhaustive dialysis [3 changes of at least 20 volumes (>8000×)] against PBS [100 mM NaPhosphate, pH 8 and 150 mM NaCl]. […] The modified RORγ-LBD was dialyzed against 2 buffer changes—TBS pH 8.0 containing 5 mM DTT, 2 mM EDTA and 2% sucrose—each at least 20 times of the volume. The modified protein was distributed into aliquots, frozen on dry ice and stored at −80° C. The biotinylated RORγ-LBD was subjected to mass spectrometric analysis to reveal the extent of modification by the biotinylation reagent.
Biotinylated SRC1(2) solution was prepared by adding an appropriate amount of biotinylated SRC1(2) from the 100 uM stock solution to a buffer containing 10 mM of freshly added DTT from solid to give a final concentration of 40 nM. An appropriate amount of Europium labeled Streptavidin was then added to the biotinylated SRC1(2) solution in a tube to give a final concentration of 10 nM. The tube was inverted gently and incubated for 15 minutes at room temperature. Twenty-fold excess biotin from the 10 mM stock solution was added and the tube was inverted gently and incubated for 10 minutes at room temperature.
Biotinylated RORγ-LBD solution was prepared by adding an appropriate amount of biotinylated RORγ-LBD from the stock solution to a buffer containing 10 mM of freshly added DTT from solid to give a final concentration of 40 nM. An appropriate amount of APC labeled Streptavidin was then added to the biotinylated RORγ-LBD solution in a tube to give a final concentration of 20 nM. The tube was inverted gently and incubated for 15 minutes at room temperature. Twenty-fold excess biotin from the 10 mM stock solution was then added and the tube was inverted gently and incubated for 10 minutes at room temperature.
The reaction mixtures were incubated for 5 minutes. […] The plates were incubated for 1 hour and then read on ViewLux in Lance mode for EU/APC.

[2] = test system: IL-17F mRNA expression; test: Ex-vivo human skin model, IL-17F mRNA expression; type: cell-based; conditions: for Percentage of inhibition of IL-17F mRNA expression: Th17 cytokine cocktail 24 h, RT-PCR
Protocol: (§1) Fresh ex vivo human skin from healthy bariatric patients, that underwent abdominoplasty skin removal, was de-fatted and dermatomed at 750 μm. Dermatomed skin was incubated twice for 5-10 minutes at room temperature in PBS containing a antibiotic/antimycotic solution: Fungizone (Invitrogen #15290018), PSG (Fisher #BW17718R) and Gentamicin (Invitrogen #15750060). Skin was treated aseptically from this point on. Individual skin samples were obtained by 10 mm punch biopsy and placed in a 0.4 μm PCF membrane transwell (Millicell #PIHP01250) containing 30 μl of a 64% bovine collagen solution. After a 30 minute incubation at 37° C., which allows the collagen solution time to set, skin samples on transwells were transferred to 6-well plates (1 sample per well) and the lower chamber filled with 1 ml complete media (Cornification Media)+hydrocortisone (final concentration of 0.4 μg/ml) with or without test compounds at 10 μM (day −3) and allowed to rest overnight (16-18 h) at 37° C. Next, media was aspirated from the lower chamber, replaced with 1 ml complete media without hydrocortisone and incubated at 37° C. for 1 h. This constituted a ‘wash’ step. Following the hydrocortisone washout, media was again aspirated from the lower chamber and replaced with 1.0 ml complete media without hydrocortisone with or without GSK compounds at 10 μM (day −2). Cultures were incubated at 37° C. in a humidified chamber and media was refreshed one more day (day-1). The following day (day-0), cultures were stimulated for 24 h with a freshly made Th17 cytokine cocktail (CD3, 1 μg/ml, CD28, 2 μg/ml, IL-1b, 10 ng/ml, IL-6, 5 ng/ml, TGFb, 1 ng/ml, IL-21, 10 ng/ml, anti-IL-4, 1 μg/ml and anti-INFg, 1 μg/ml) with or without test compounds at 10 μM. Upon harvest (day +1), skin samples were minced with a razor blade and transferred to 1.5 ml RNAse-free tubes with 1 ml RNAlater solution until later analysis by RT-PCR (stored at −80 C).
(§2) Total RNA was isolated from about 30-40 mg of tissue using Qiagen's (Cat #74106) Mini RNA Isolation kit. Briefly, tissue was homogenized in the Precellys-24 machine using 300 μL of RLT buffer supplemented with 1% 2-Beta-Mercapto-Ethanol at 6300 rpm for 30 seconds for 6 cycles with a 2-minute ice break. 600 μL of water containing Proteinase K was added to the homogenate and digested at 55 C for 15 minutes. Digested tissue was spun down for 3 minutes at 10,000×g and the supernantant was used for RNA isolation using Qiagen's RNeasy mini columns according to manufacturer's protocol. 100 ng of RNA was used as template in a 20 μL PCR volume using Applied Biosciences RNA-to-CT 1 Step kit (AB Catalog #4392938) as well as the specific TaqMan probe for each gene to be quantified. Life Technologies FAM labeled Probes Catalog Numbers are as follows: ACTb=Hs01060665_g1, IL-17A=Hs00174383_m1, IL-17F=Hs00369400_m1, IL-22=Hs01574154_m1. All probes used (except for ACTb) expand an Exon. Applied Biosciences' Master Mix has a ROX dye internal control. OneStepPlus PCR machine was used for both the RT step and the 40 amplification cycles. RNA levels of gene of interest's relative expression were calculated using the Delta Delta CT formula.
(§3) First delta: Normalized to ACTb gene expression
(§4) Second delta: Normalized to sample 13 (Day 0+DMSO) for the gene of interest.

[3] = test system: IL-22 mRNA expression; test: Ex-vivo human skin model, IL-22 mRNA expression; type: cell-based; conditions: for Percentage of inhibition of IL-22 mRNA expression: Th17 cytokine cocktail 24 h, RT-PCR
Protocol: as §1, §2, §3, §4

[4] = test system: IL-17A mRNA expression; test: Ex-vivo human skin model, IL-17A mRNA expression; type: cell-based; conditions: for Percentage of inhibition of IL-17A mRNA expression: Th17 cytokine cocktail 24 h, RT-PCR
Protocol: as §1, §2, §3, §4

[5] = four different donors, compound 10 μM

IC50 [1] [µM] | Compound | Percentage of inhibition of IL-17F mRNA expression ([2]; Skin Donor 1, compound 10 μM) | Percentage of inhibition of IL-17F mRNA expression ([2]; Skin Donor 2, compound 10 μM) [% *] | Percentage of inhibition of IL-17F mRNA expression ([2]; Skin Donor 3, compound 10 μM) | Percentage of inhibition of IL-17F mRNA expression ([2]; Skin Donor 4, compound 10 μM) [% *] | Percentage of inhibition of IL-22 mRNA expression ([3]; Skin Donor 1, compound 10 μM) [% *] | Percentage of inhibition of IL-22 mRNA expression ([3]; Skin Donor 2, compound 10 μM) [%] | Percentage of inhibition of IL-22 mRNA expression ([3]; Skin Donor 3, compound 10 μM) [%] | Percentage of inhibition of IL-22 mRNA expression ([3]; Skin Donor 4, compound 10 μM) [% *] | Percentage of inhibition of IL-17A mRNA expression ([4]; Skin Donor 1, compound 10 μM) [% *] | Percentage of inhibition of IL-17A mRNA expression ([4]; Skin Donor 2, compound 10 μM) [% *] | Percentage of inhibition of IL-17A mRNA expression ([4]; Skin Donor 3, compound 10 μM) [% *] | Percentage of inhibition of IL-17A mRNA expression ([4]; Skin Donor 4, compound 10 μM) [% *] | gene transcription of il17f (result in words) [2, 5] | gene transcription of il22 (result in words) [3, 5] | gene transcription of il17a (result in words) [4, 5]
0.0316 | CCc1ccc(N(CC(C)C)S(=O)(=O)c2ccc(C(O)CN3CCOCC3)c(CO)c2)cc1 (racemic) [Example E123, N-(4-ethylphenyl)-4-(1-hydroxy-2-morpholinoethyl)-3-(hydroxymethyl)-N-isobutylbenzenesulfonamide] | 55% * | 84 | 65% * | 87 | 63 | 57 | 50 | 68 | 76 | 92 | 73 | 91 | – | – | –
0.0316 | CCc1ccc(N(CC(C)C)S(=O)(=O)c2ccc([C@H](O)CN3CCOCC3)c(CO)c2)cc1 [Example E125, N-(4-ethylphenyl)-4-(1-hydroxy-2-morpholinoethyl)-3-(hydroxymethyl)-N-isobutylbenzenesulfonamide] | 39% | 89 | 45% | 80 | 52 | 52 | 20 | 70 | 65 | 92 | 65 | 93 | inhibited | inhibited | inhibited
